Data from BindingDB's records for doi:10.1016/j.chembiol.2010.06.007 (Stanford School of Medicine, 2010).

Target: Dipeptidyl aminopeptidase 1 (Plasmodium falciparum)
Assay: DPAP1 inhibtion was measured using DPAP1-specific fluorogenic assay. IC50 DPAP1 were determined after 30 min incubation of parasite lysates with 5 nM to 100 mM inhibitor. ki values were obtained by fitting the data to Equation 1.

Q: With CCCCC(C(=O)COc1c(F)c(F)cc(F)c1F)n1cc(C(N)(CCC)CCC)nn1 (configuration not stated) [ML4124] as the molecule, how does the IC50 read?
A: 700 nM

Q: With CCCCC(C(=O)COc1c(F)c(F)cc(F)c1F)n1cc(C(C)(N)CCC)nn1 (configuration not stated) [ML4123] as the molecule, how does the IC50 read?
A: 410 nM

Q: How did the IC50 turn out when CCCCC(C(=O)COC(=O)c1c(C)cccc1C)n1cc(C2(N)CCCCC2)nn1 (configuration not stated) [ML4091] was run?
A: 11000 nM

Q: Which IC50 does the source give for CCCCC(C(=O)COc1c(F)c(F)cc(F)c1F)n1cc(C2(N)CCCCC2)nn1 (configuration not stated) [HN3019] here?
A: 560 nM

Q: CCCCC(C(=O)COc1c(F)c(F)cc(F)c1F)n1cc([C@@](C)(N)C2CCCCC2)nn1 (some centres not stated) [ML4046A] was tested. Which IC50 did it give?
A: 700 nM

Q: CCCCC(C(=O)COc1c(F)c(F)cc(F)c1F)n1cc(C(C)(N)Cc2ccccc2)nn1 (configuration not stated) [ML4053] was tested. Which IC50 did it give?
A: > 100000 nM

Q: How did the IC50 turn out when CCCCC(C(=O)COc1c(F)c(F)cc(F)c1F)n1cc(C2(C)CCCN2)nn1 (configuration not stated) [ML6076] was run?
A: 420 nM

Q: With CCCCC(C(=O)COc1c(F)c(F)cc(F)c1F)n1cc(C(C)N)nn1 (configuration not stated) [ML4057] as the molecule, how does the IC50 read?
A: 700 nM

Q: How did the IC50 turn out when CCCCC(C(=O)COc1c(F)c(F)cc(F)c1F)n1cc(C2(N)CCN(C(N)=O)CC2)nn1 (configuration not stated) [ML4154] was run?
A: > 20000 nM

Q: Which IC50 does the source give for CCCCC(C(=O)COc1c(F)c(F)cc(F)c1F)n1cc(C2(N)CCN(C(C)=O)CC2)nn1 (configuration not stated) [ML4163] here?
A: > 20000 nM

Q: For CCCCC(C(=O)COc1c(F)c(F)cc(F)c1F)n1cc(C(N)(CC)CC)nn1 (configuration not stated) [ML4161], which IC50 is on record?
A: 410 nM

Q: CCCCC(C(=O)COc1c(F)c(F)cc(F)c1F)n1cc(C(C)(C)N)nn1 (configuration not stated) [ML4066] was tested. Which IC50 did it give?
A: 1100 nM

Q: For CCCCC(C#N)n1cc(C2(N)CCCCC2)nn1 (configuration not stated) [ML4101], which IC50 is on record?
A: > 100000 nM

Q: For CCCCC(C(=O)COc1c(F)c(F)cc(F)c1F)n1cc(C(CCC)(CCC)NC)nn1 (configuration not stated) [ML5004], which IC50 is on record?
A: 7700 nM

Q: How did the IC50 turn out when CCCCC(C(=O)COc1c(F)c(F)cc(F)c1F)n1cc(C2(N)CCNCC2)nn1 (configuration not stated) [ML4162] was run?
A: > 20000 nM

Q: For CCCCC(C(=O)COc1c(F)c(F)cc(F)c1F)n1cc([C@](C)(N)C2CCCCC2)nn1 (some centres not stated) [ML4046B], which IC50 is on record?
A: > 20000 nM

Q: For CCCCC(C(=O)COc1c(F)c(F)cc(F)c1F)n1cc(C(N)Cc2ccccc2)nn1 (configuration not stated) [ML4068], which IC50 is on record?
A: 74000 nM
